In US20160083391A1, “TRICYCLIC PIPERAZINE DERIVATIVE” (Sunovion Pharmaceuticals Inc., priority 2014, published 2016):

These compounds were tested on PDE1 (assay: In vitro HTRF PDE1 inhibition assay). Conditions: HTRF cGMP assay, 100 nM cyclic GMP, PDE (1A3, 1B or 1C) with calmodulin, 45 minutes at 37° C.; isoform of the tabulated values not stated.
Assay type: biochemical
Outline: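 HTRF cGMP competition assay: PDE1A3, 1B or 1C with calmodulin acting on 100 nM cGMP in 1% DMSO, pH 7.4 buffer with Ca2+ and Mg2+, 45 min at 37 °C. Remaining cGMP detected with d2-cGMP and anti-cGMP cryptate (665/615 nm); IC50 reported as banded categories.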
An IC50 of 1000 to 10000 nM was found for `CCCn1ncc2c(=O)n3c(nc21)CN(Cc1ccc(OC)cc1)CC3` [Compound I-164, 8-(4-Methoxybenzyl)-1-propyl-6,7,8,9-tetrahydropyrazino[1,2-a]pyrazolo[3,4-d]pyrimidin-4(1H)-one] in this work.
An IC50 of 1000 to 10000 nM was found for `CCCn1ncc2c(=O)n3c(nc21)CN(Cc1ccc(Cl)c(Cl)c1)CC3` [Compound I-165, 8-(3,4-Dichlorobenzyl)-1-propyl-6,7,8,9-tetrahydropyrazino[1,2-a]pyrazolo[3,4-d]pyrimidin-4(1H)-one] in this work.
An IC50 of 1000 to 10000 nM was found for `CCCn1ncc2c(=O)n3c(nc21)CN(Cc1cccc(Cl)c1)CC3` [Compound I-166, 8-(3-Chlorobenzyl)-1-propyl-6,7,8,9-tetrahydropyrazino[1,2-a]pyrazolo[3,4-d]pyrimidin-4(1H)-one] in this work.
An IC50 of under 1000 nM was found for `CCCn1ncc2c(=O)n3c(nc21)CN(c1ccc(Cl)cc1)CC3` [Compound I-167, 8-(4-Chlorophenyl)-1-propyl-6,7,8,9-tetrahydropyrazino[1,2-a]pyrazolo[3,4-d]pyrimidin-4(1H)-one] in this work.
An IC50 of 1000 to 10000 nM was found for `CCCn1ncc2c(=O)n3c(nc21)CN(c1ccc(Cl)c(Cl)c1)CC3` [Compound I-168, 8-(3,4-Dichlorophenyl)-1-propyl-6,7,8,9-tetrahydropyrazino[1,2-a]pyrazolo[3,4-d]pyrimidin-4(1H)-one] in this work.
An IC50 of under 1000 nM was found for `CC(C)n1ncc2c(=O)n3c(nc21)CN(Cc1ccc(Cl)c(Cl)c1)CC3` [Compound I-169, 8-(3,4-Dichlorobenzyl)-1-isopropyl-6,7,8,9-tetrahydropyrazino[1,2-a]pyrazolo[3,4-d]pyrimidin-4(1H)-one] in this work.
An IC50 of 1000 to 10000 nM was found for `CC(C)n1ncc2c(=O)n3c(nc21)CN(Cc1ccc2c(c1)OCO2)CC3` [Compound I-170, 8-(Benzo[d][1,3]dioxol-5-ylmethyl)-1-isopropyl-6,7,8,9-tetrahydropyrazino[1,2-a]pyrazolo[3,4-d]pyrimidin-4(1H)-one] in this work.
An IC50 of under 1000 nM was found for `CC(C)n1ncc2c(=O)n3c(nc21)CN(c1ccc(Cl)c(Cl)c1)CC3` [Compound I-171, 8-(3,4-Dichlorophenyl)-1-isopropyl-6,7,8,9-tetrahydropyrazino[1,2-a]pyrazolo[3,4-d]pyrimidin-4(1H)-one] in this work.
An IC50 of under 1000 nM was found for `CCOc1cccc(N2CCn3c(nn4c(C(C)C)ncc4c3=O)C2)c1` [Compound I-173, 7-(3-Ethoxyphenyl)-3-isopropyl-8,9-dihydro-6H-imidazo[5,1-f]pyrazino[2,1-c][1,2,4]triazin-11(7H)-one] in this work.
An IC50 of under 1000 nM was found for `COc1cccc(N2CCn3c(nn4c(C(C)C)ncc4c3=O)C2)c1` [Compound I-174, 3-Isopropyl-7-(3-methoxyphenyl)-8,9-dihydro-6H-imidazo[5,1-f]pyrazino[2,1-c][1,2,4]triazin-11(7H)-one] in this work.
An IC50 of under 1000 nM was found for `CC(C)c1ncc2c(=O)n3c(nn12)CN(c1ccc(Cl)cc1)CC3` [Compound I-175, 7-(4-Chlorophenyl)-3-isopropyl-8,9-dihydro-6H-imidazo[5,1-f]pyrazino[2,1-c][1,2,4]triazin-11(7H)-one] in this work.
An IC50 of under 1000 nM was found for `CC(C)c1ncc2c(=O)n3c(nn12)CN(c1ccc(F)cc1)CC3` [Compound I-176, 7-(4-Fluorophenyl)-3-isopropyl-8,9-dihydro-6H-imidazo[5,1-f]pyrazino[2,1-c][1,2,4]triazin-11(7H)-one] in this work.
An IC50 of under 1000 nM was found for `CCOc1cc(N2CCn3c(nn4c(C(C)C)ncc4c3=O)C2)ccc1F` [Compound I-177, 7-(3-Ethoxy-4-fluorophenyl)-3-isopropyl-8,9-dihydro-6H-imidazo[5,1-f]pyrazino[2,1-c][1,2,4]triazin-11(7H)-one] in this work.
An IC50 of under 1000 nM was found for `COc1ccc(CN2CCn3c(nn4c(C(C)C)ncc4c3=O)C2)cc1` [Compound I-178, 3-Isopropyl-7-(4-methoxybenzyl)-8,9-dihydro-6H-imidazo[5,1-f]pyrazino[2,1-c][1,2,4]triazin-11(7H)-one] in this work.
An IC50 of under 1000 nM was found for `CC(C)c1ncc2c(=O)n3c(nn12)CN(Cc1ccc(Cl)cc1)CC3` [Compound I-179, 7-(4-Chlorobenzyl)-3-isopropyl-8,9-dihydro-6H-imidazo[5,1-f]pyrazino[2,1-c][1,2,4]triazin-11(7H)-one] in this work.
An IC50 of under 1000 nM was found for `CCOc1cccc(N2CCn3c(nn4c(C5CCCC5)ncc4c3=O)C2)c1` [Compound I-180, 3-Cyclopentyl-7-(3-ethoxyphenyl)-8,9-dihydro-6H-imidazo[5,1-f]pyrazino[2,1-c][1,2,4]triazin-11(7H)-one] in this work.
An IC50 of under 1000 nM was found for `COc1cccc(N2CCn3c(nn4c(C5CCCC5)ncc4c3=O)C2)c1` [Compound I-181, 3-Cyclopentyl-7-(3-methoxyphenyl)-8,9-dihydro-6H-imidazo[5,1-f]pyrazino[2,1-c][1,2,4]triazin-11(7H)-one] in this work.
An IC50 of under 1000 nM was found for `O=c1c2cnc(C3CCCC3)n2nc2n1CCN(c1ccc(Cl)cc1)C2` [Compound I-182, 7-(4-Chlorophenyl)-3-cyclopentyl-8,9-dihydro-6H-imidazo[5,1-f]pyrazino[2,1-c][1,2,4]triazin-11(7H)-one] in this work.
An IC50 of under 1000 nM was found for `O=c1c2cnc(C3CCCC3)n2nc2n1CCN(c1ccc(F)cc1)C2` [Compound I-183, 3-Cyclopentyl-7-(4-fluorophenyl)-8,9-dihydro-6H-imidazo[5,1-f]pyrazino[2,1-c][1,2,4]triazin-11(7H)-one] in this work.
An IC50 of under 1000 nM was found for `CCOc1cc(N2CCn3c(nn4c(C5CCCC5)ncc4c3=O)C2)ccc1F` [Compound I-184, 3-Cyclopentyl-7-(3-ethoxy-4-fluorophenyl)-8,9-dihydro-6H-imidazo[5,1-f]pyrazino[2,1-c][1,2,4]triazin-11(7H)-one] in this work.
An IC50 of 1000 to 10000 nM was found for `O=c1c2cnc(C3CCCC3)n2nc2n1CCN(c1ccncc1)C2` [Compound I-185, 3-Cyclopentyl-7-(pyridin-4-yl)-8,9-dihydro-6H-imidazo[5,1-f]pyrazino[2,1-c][1,2,4]triazin-11(7H)-one] in this work.
An IC50 of 1000 to 10000 nM was found for `Cc1ccc(CN2CCn3c(nc4c(cnn4C(C)C)c3=O)C2)cn1` [Compound I-186, 1-Isopropyl-8-((6-methylpyridin-3-yl)methyl)-6,7,8,9-tetrahydropyrazino[1,2-a]pyrazolo[3,4-d]pyrimidin-4(1H)-one] in this work.
An IC50 of under 1000 nM was found for `Cc1ccc(CN2CCn3c(nc4c(cnn4C4CCCC4)c3=O)C2)cn1` [Compound I-187, 1-Cyclopentyl-8-((6-methylpyridin-3-yl)methyl)-6,7,8,9-tetrahydropyrazino[1,2-a]pyrazolo[3,4-d]pyrimidin-4(1H)-one] in this work.
An IC50 of 1000 to 10000 nM was found for `Cc1ccc(CN2CCn3c(nn4c(C(C)C)ncc4c3=O)C2)cn1` [Compound I-188, 3-Isopropyl-7-((6-methylpyridin-3-yl)methyl)-8,9-dihydro-6H-imidazo[5,1-f]pyrazino[2,1-c][1,2,4]triazin-11(7H)-one] in this work.
An IC50 of under 1000 nM was found for `Cc1ccc(CN2CCn3c(nn4c(C5CCCC5)ncc4c3=O)C2)cn1` [Compound I-189, 3-Cyclopentyl-7-((6-methylpyridin-3-yl)methyl)-8,9-dihydro-6H-imidazo[5,1-f]pyrazino[2,1-c][1,2,4]triazin-11(7H)-one] in this work.
An IC50 of over 10000 nM was found for `CC(C)n1ncc2c(=O)n3c(nc21)CN(Cc1cncnc1)CC3` [Compound I-190, 1-Isopropyl-8-(pyrimidin-5-ylmethyl)-6,7,8,9-tetrahydropyrazino[1,2-a]pyrazolo[3,4-d]pyrimidin-4(1H)-one] in this work.
An IC50 of 1000 to 10000 nM was found for `O=c1c2cnn(C3CCCC3)c2nc2n1CCN(Cc1cncnc1)C2` [Compound I-191, 1-Cyclopentyl-8-(pyrimidin-5-ylmethyl)-6,7,8,9-tetrahydropyrazino[1,2-a]pyrazolo[3,4-d]pyrimidin-4(1H)-one] in this work.
An IC50 of over 10000 nM was found for `CC(C)c1ncc2c(=O)n3c(nn12)CN(Cc1cncnc1)CC3` [Compound I-192, 3-Isopropyl-7-(pyrimidin-5-ylmethyl)-8,9-dihydro-6H-imidazo[5,1-f]pyrazino[2,1-c][1,2,4]triazin-11(7H)-one] in this work.
An IC50 of 1000 to 10000 nM was found for `O=c1c2cnc(C3CCCC3)n2nc2n1CCN(Cc1cncnc1)C2` [Compound I-193, 3-Cyclopentyl-7-(pyrimidin-5-ylmethyl)-8,9-dihydro-6H-imidazo[5,1-f]pyrazino[2,1-c][1,2,4]triazin-11(7H)-one] in this work.
An IC50 of over 10000 nM was found for `Cc1ncc(CN2CCn3c(nc4c(cnn4C(C)C)c3=O)C2)cn1` [Compound I-194, 1-Isopropyl-8-((2-methylpyrimidin-5-yl)methyl)-6,7,8,9-tetrahydropyrazino[1,2-a]pyrazolo[3,4-d]pyrimidin-4(1H)-one] in this work.
An IC50 of 1000 to 10000 nM was found for `Cc1ncc(CN2CCn3c(nc4c(cnn4C4CCCC4)c3=O)C2)cn1` [Compound I-195, 1-Cyclopentyl-8-((2-methylpyrimidin-5-yl)methyl)-6,7,8,9-tetrahydropyrazino[1,2-a]pyrazolo[3,4-d]pyrimidin-4(1H)-one] in this work.
An IC50 of 1000 to 10000 nM was found for `Cc1ncc(CN2CCn3c(nn4c(C(C)C)ncc4c3=O)C2)cn1` [Compound I-196, 3-Isopropyl-7-((2-methylpyrimidin-5-yl)methyl)-8,9-dihydro-6H-imidazo[5,1-f]pyrazino[2,1-c][1,2,4]triazin-11(7H)-one] in this work.
An IC50 of 1000 to 10000 nM was found for `Cc1ncc(CN2CCn3c(nn4c(C5CCCC5)ncc4c3=O)C2)cn1` [Compound I-197, 3-Cyclopentyl-7-((2-methylpyrimidin-5-yl)methyl)-8,9-dihydro-6H-imidazo[5,1-f]pyrazino[2,1-c][1,2,4]triazin-11(7H)-one] in this work.
An IC50 of over 10000 nM was found for `Cc1cnc(CN2CCn3c(nc4c(cnn4C(C)C)c3=O)C2)nc1` [Compound I-198, 1-Isopropyl-8-((5-methylpyrimidin-2-yl)methyl)-6,7,8,9-tetrahydropyrazino[1,2-a]pyrazolo[3,4-d]pyrimidin-4(1H)-one] in this work.
An IC50 of 1000 to 10000 nM was found for `Cc1cnc(CN2CCn3c(nc4c(cnn4C4CCCC4)c3=O)C2)nc1` [Compound I-199, 1-Cyclopentyl-8-((5-methylpyrimidin-2-yl)methyl)-6,7,8,9-tetrahydropyrazino[1,2-a]pyrazolo[3,4-d]pyrimidin-4(1H)-one] in this work.
An IC50 of 1000 to 10000 nM was found for `Cc1cnc(CN2CCn3c(nn4c(C(C)C)ncc4c3=O)C2)nc1` [Compound I-200] in this work.
An IC50 of 1000 to 10000 nM was found for `Cc1cnc(CN2CCn3c(nn4c(C5CCCC5)ncc4c3=O)C2)nc1` [Compound I-201] in this work.
